Source: US20170232083A1, “METHODS OF DIAGNOSIS AND TREATMENT OF CELIAC DISEASE IN CHILDREN” (priority 2014, published 2017)

Experiments:
[1] = tested on: PBMC (polyclonal gluten-specific T cells) of paediatric and adult CD patients; experiment: IFN-γ ELISpot of PBMC after 3 day oral wheat challenge (SFU, % of maximal peptide response, dominance scores, EC50; Examples 5-6); assay type: cell-based, human; settings: for Dominance score 3-5yrs (n = 9): CD children 3-5yrs, n = 9, following wheat challenge; for Dominance score 3-5yrs (n = 9) / Dominance score 6-10yrs (n = 10) / Dominance score 11-18yrs (n = 11): mean percentage of maximal peptide response; for Dominance score 6-10yrs (n = 10): CD children 6-10yrs, n = 10, following wheat challenge; for Dominance score 11-18yrs (n = 11): CD children 11-18yrs, n = 11, following wheat challenge; for Dominance score Mean all ages: CD children, following wheat challenge (Table 9); for dominance hierarchy across all age groupings: Example 5; for dominance hierarchy across all age groups: Example 6; for Dominance scores 3-5 yrs: children with celiac disease 3-5 yrs after wheat challenge (Table 14); for Dominance scores 6-10 yrs: children with celiac disease 6-10 yrs after wheat challenge (Table 14); for Dominance scores 11-18 yrs: children with celiac disease 11-18 yrs after wheat challenge (Table 14); for Dominance scores Mean all ages: mean of all subjects (Table 14); for IFN-γ ELISpot response: after oral wheat challenge
[2] = tested on: PBMC (polyclonal gluten-specific T cells) of paediatric and adult CD patients; settings: corresponding adult data shown for comparison (14); cited from earlier work
[3] = patient A, 11-17 yrs, cut-off 10 SFU
[4] = patient D, max peptide 30.5 SFU
[5] = patient E, H, 11-17 yrs, cut-off 10 SFU
[6] = patient F, 11-17 yrs, cut-off 10 SFU
[7] = patient G, 11-17 yrs, cut-off 10 SFU
[8] = patient H (HLA-DQ2.5 homozygote), 3-5yrs, cut-off 10 SFU
[9] = patient H, 11-17 yrs, cut-off 10 SFU
[10] = patient ID not given, 11-17 yrs, cut-off 10 SFU
[11] = patient ID not given, max peptide 95 SFU
[12] = patient N, 3-5yrs, cut-off 10 SFU
[13] = patient P, 11-17 yrs, cut-off 21.6 SFU
[14] = patient Q, 11-17 yrs, cut-off 10 SFU
[15] = patient U, H, 11-17 yrs, cut-off 10 SFU
[16] = patient V, 6-10 yrs, cut-off 10 SFU
[17] = patient Y, 6-10 yrs, cut-off 10 SFU
[18] = patient eleven, 6-10 yrs, cut-off 10 SFU
[19] = patient five, max peptide 48 SFU
[20] = patient four, 3-5yrs, cut-off 10 SFU
[21] = patient four, max peptide 44 SFU
[22] = patient seven, 6-10 yrs, cut-off 10.5 SFU
[23] = patient ten, 3-5yrs, cut-off 10 SFU
[24] = patient three, 6-10 yrs, cut-off 10.5 SFU
[25] = patient twelve, 11-17 yrs, cut-off 10 SFU
[26] = patient two, 3-5yrs, cut-off 10 SFU
[27] = patient two, max peptide 60 SFU

LPYPQPELPYPQP [Peptide W01]
Dominance score 3-5yrs (n = 9) [1]: 68.5 | Dominance score 6-10yrs (n = 10) [1]: 71.7 | Dominance score 11-18yrs (n = 11) [1]: 51.0 | Dominance score Mean all ages [1]: 62.6 | dominance hierarchy across all age groupings [1]: most dominant three peptides | dominance hierarchy across all age groups [1]: most dominant four peptides | Dominance scores 3-5 yrs [1]: 65 | Dominance scores 6-10 yrs [1]: 72 | Dominance scores 11-18 yrs [1]: 51 | Dominance scores Mean all ages [1]: 62 | IFN-γ ELISpot response [1, 3]: 2 SFU | Significant response as percentage of maximal peptide SFU [1, 4]: ′′ (21-40% = ′′) | IFN-γ ELISpot response [1, 5]: 111 SFU | Significant response as percentage of maximal peptide SFU ([1]; patient E, max peptide 224 SFU): ′′′ (41-70% = ′′′) | IFN-γ ELISpot response [1, 6]: 161 SFU | Significant response as percentage of maximal peptide SFU ([1]; patient F, max peptide 178 SFU): + (>70% = +) | IFN-γ ELISpot response [1, 7]: 7 SFU | IFN-γ ELISpot response [1, 8]: 33 SFU | IFN-γ ELISpot response [1, 9]: 10 SFU | Significant response as percentage of maximal peptide SFU ([1]; patient H, max peptide 17 SFU): ′′′ (41-70% = ′′′) | IFN-γ ELISpot response [1, 10]: 62 SFU | Significant response as percentage of maximal peptide SFU [1, 11]: ′′′ (41-70% = ′′′) | Significant response as percentage of maximal peptide SFU ([1]; patient II, max peptide 15 SFU): + (>70% = +) | Significant response as percentage of maximal peptide SFU ([1]; patient J, max peptide 196 SFU): + (>70% = +) | Significant response as percentage of maximal peptide SFU ([1]; patient K, max peptide 53 SFU): + (>70% = +) | Significant response as percentage of maximal peptide SFU ([1]; patient L, max peptide 11 SFU): + (>70% = +) | Significant response as percentage of maximal peptide SFU ([1]; patient M, max peptide 48 SFU): ′′′ (41-70% = ′′′) | IFN-γ ELISpot response [1, 12]: 6 SFU | IFN-γ ELISpot response [1, 13]: 36 SFU | Significant response as percentage of maximal peptide SFU ([1]; patient P, max peptide 64 SFU): ′′′ (41-70% = ′′′) | IFN-γ ELISpot response [1, 14]: 78 SFU | Significant response as percentage of maximal peptide SFU ([1]; patient Q, max peptide 97 SFU): + (>70% = +) | IFN-γ ELISpot response [1, 15]: 44 SFU | Significant response as percentage of maximal peptide SFU ([1]; patient U, max peptide 81 SFU): ′′′ (41-70% = ′′′) | IFN-γ ELISpot response [1, 16]: 35 SFU | Significant response as percentage of maximal peptide SFU ([1]; patient V, max peptide 35 SFU): + (>70% = +) | IFN-γ ELISpot response [1, 17]: 16 SFU | Significant response as percentage of maximal peptide SFU ([1]; patient Y, max peptide 16 SFU): + (>70% = +) | IFN-γ ELISpot response [1, 18]: 45 SFU | Significant response as percentage of maximal peptide SFU ([1]; patient eleven, max peptide 57 SFU): + (>70% = +) | Significant response as percentage of maximal peptide SFU [1, 19]: ′′′ (41-70% = ′′′) | IFN-γ ELISpot response [1, 20]: 44 SFU | Significant response as percentage of maximal peptide SFU [1, 21]: + (>70% = +) | IFN-γ ELISpot response [1, 22]: 3 SFU | IFN-γ ELISpot response [1, 23]: 9 SFU | IFN-γ ELISpot response [1, 24]: 196 SFU | IFN-γ ELISpot response [1, 25]: 12 SFU | IFN-γ ELISpot response [1, 26]: 33 SFU | Significant response as percentage of maximal peptide SFU [1, 27]: ′′′ (41-70% = ′′′) | Dominance scores 18+ yrs [2]: 69

QPFPQPEQPFPWQ [Peptide W03, contains DQ2.5-glia-w1 and w2]
magnitude of T cell responses, HLA-DQ2.5 homozygous vs heterozygous [1]: significantly greater | Dominance score 3-5yrs (n = 9) [1]: 66.6 | Dominance score 6-10yrs (n = 10) [1]: 51.5 | Dominance score 11-18yrs (n = 11) [1]: 46.5 | Dominance score Mean all ages [1]: 54.2 | dominance hierarchy across all age groupings [1]: most dominant three peptides | CD children responding (polyclonal T cells after oral wheat challenge) ([1]; Example 5, n=22): 68.2% | dominance hierarchy across all age groups [1]: most dominant four peptides | CD children responding (polyclonal T cells induced by oral wheat challenge) ([1]; Example 6, n=22): 68% | response to native vs deamidated form ([1]; all age groups): Deamidation enhanced the response | Dominance scores 3-5 yrs [1]: 65 | Dominance scores 6-10 yrs [1]: 51 | Dominance scores 11-18 yrs [1]: 46 | Dominance scores Mean all ages [1]: 54 | IFN-γ ELISpot responses Day 0 prior to vs Day 6 after wheat challenge ([1]; p<0.05, Kruskal Wallis): Significant gluten-specific responses were observed on Day 6 only | IFN-γ ELISpot response [1, 3]: 5 SFU | Significant response as percentage of maximal peptide SFU [1, 4]: ′′′ (41-70% = ′′′) | IFN-γ ELISpot response [1, 5]: 61 SFU | Significant response as percentage of maximal peptide SFU ([1]; patient E, max peptide 224 SFU): ′′ (21-40% = ′′) | IFN-γ ELISpot response [1, 6]: 77 SFU | Significant response as percentage of maximal peptide SFU ([1]; patient F, max peptide 178 SFU): ′′′ (41-70% = ′′′) | IFN-γ ELISpot response [1, 7]: 5 SFU | IFN-γ ELISpot response [1, 8]: 48 SFU | IFN-γ ELISpot response [1, 9]: 6 SFU | IFN-γ ELISpot response [1, 10]: 83 SFU | Significant response as percentage of maximal peptide SFU [1, 11]: + (>70% = +) | Significant response as percentage of maximal peptide SFU ([1]; patient J, max peptide 196 SFU): ′′′ (41-70% = ′′′) | Significant response as percentage of maximal peptide SFU ([1]; patient K, max peptide 53 SFU): ′′ (21-40% = ′′) | Significant response as percentage of maximal peptide SFU ([1]; patient M, max peptide 48 SFU): + (>70% = +) | IFN-γ ELISpot response [1, 12]: 19 SFU | Significant response as percentage of maximal peptide SFU ([1]; patient N, max peptide 19 SFU): + (>70% = +) | IFN-γ ELISpot response [1, 13]: 43 SFU | Significant response as percentage of maximal peptide SFU ([1]; patient P, max peptide 64 SFU): ′′′ (41-70% = ′′′) | IFN-γ ELISpot response [1, 14]: 54 SFU | Significant response as percentage of maximal peptide SFU ([1]; patient Q, max peptide 97 SFU): ′′′ (41-70% = ′′′) | IFN-γ ELISpot response [1, 15]: 34 SFU | Significant response as percentage of maximal peptide SFU ([1]; patient U, max peptide 81 SFU): ′′′ (41-70% = ′′′) | IFN-γ ELISpot response [1, 16]: 34 SFU | Significant response as percentage of maximal peptide SFU ([1]; patient V, max peptide 35 SFU): + (>70% = +) | IFN-γ ELISpot response [1, 17]: 8 SFU | IFN-γ ELISpot response [1, 18]: 6 SFU | Significant response as percentage of maximal peptide SFU [1, 19]: + (>70% = +) | IFN-γ ELISpot response [1, 20]: 18 SFU | Significant response as percentage of maximal peptide SFU [1, 21]: ′′′ (41-70% = ′′′) | IFN-γ ELISpot response [1, 22]: 4 SFU | IFN-γ ELISpot response [1, 23]: 8 SFU | IFN-γ ELISpot response [1, 24]: 13 SFU | IFN-γ ELISpot response [1, 25]: 17 SFU | IFN-γ ELISpot response [1, 26]: 60 SFU | Significant response as percentage of maximal peptide SFU [1, 27]: + (>70% = +) | Dominance scores 18+ yrs [2]: 35
